≈ marks a conversion by molar mass, not a printed value. Calls of active or inactive are those of the source. No cut-off for these calls is given here.
Experiments:
[1] = tested on: Pichia kudriavzevii; assay: Antifungal activity against 5 x 10^7 CFU Candida krusei FMR9728 infected OF1 mouse disseminated infection model assessed as prolongation of mouse survival at 50 mg/kg/day, po for 5 days administered 24 hrs postinfection measured daily for 15 days; type: functional, organism-based
[2] = tested on: Pichia kudriavzevii; assay: Antifungal activity against Candida krusei FMR9729 infected OF1 mouse disseminated infection model assessed as reduction in spleen tissue fungal burden at 50 mg/kg/day, po for 5 days administered 24 hrs postinfection measured after 24 hrs post treatment relative to control; type: functional, organism-based
[3] = tested on: Pichia kudriavzevii; assay: Antifungal activity against Candida krusei FMR9729 infected OF1 mouse disseminated infection model assessed as reduction in kidney tissue fungal burden at 100 mg/kg/day, po for 5 days administered 24 hrs postinfection measured after 24 hrs post treatment relative to control; type: functional, organism-based
[4] = tested on: Pichia kudriavzevii; assay: Antifungal activity against Candida krusei FMR9728 by M27-A2 broth dilution method; type: functional
[5] = tested on: Pichia kudriavzevii; assay: Antifungal activity against Candida krusei FMR9728 infected OF1 mouse disseminated infection model assessed as reduction in spleen tissue fungal burden at 100 mg/kg/day, po for 5 days administered 24 hrs postinfection measured after 24 hrs post treatment relative to control; type: functional, organism-based
[6] = tested on: Pichia kudriavzevii; assay: Antifungal activity against 5 x 10^7 CFU Candida krusei FMR9729 infected OF1 mouse disseminated infection model assessed as prolongation of mouse survival at 100 mg/kg/day, po for 5 days administered 24 hrs postinfection measured daily for 15 days; type: functional, organism-based
[7] = tested on: Pichia kudriavzevii; assay: Antifungal activity against Candida krusei FMR9728 infected OF1 mouse disseminated infection model assessed as reduction in kidney tissue fungal burden at 100 mg/kg/day, po for 5 days administered 24 hrs postinfection measured after 24 hrs post treatment relative to control; type: functional, organism-based
[8] = tested on: Pichia kudriavzevii; assay: Antifungal activity against Candida krusei FMR9729 infected OF1 mouse disseminated infection model assessed as reduction in kidney tissue fungal burden at 50 mg/kg/day, po for 5 days administered 24 hrs postinfection measured after 24 hrs post treatment relative to control; type: functional, organism-based
[9] = tested on: Pichia kudriavzevii; assay: Antifungal activity against Candida krusei FMR9728 infected OF1 mouse disseminated infection model assessed as reduction in spleen tissue fungal burden at 50 mg/kg/day, po for 5 days administered 24 hrs postinfection measured after 24 hrs post treatment relative to control; type: functional, organism-based
[10] = tested on: Pichia kudriavzevii; assay: Antifungal activity against Candida krusei FMR9729 infected OF1 mouse disseminated infection model assessed as reduction in spleen tissue fungal burden at 100 mg/kg/day, po for 5 days administered 24 hrs postinfection measured after 24 hrs post treatment relative to control; type: functional, organism-based
[11] = tested on: Pichia kudriavzevii; assay: Antifungal activity against 5 x 10^7 CFU Candida krusei FMR9729 infected OF1 mouse disseminated infection model assessed as prolongation of mouse survival at 50 mg/kg/day, po for 5 days administered 24 hrs postinfection measured daily for 15 days; type: functional, organism-based
[12] = tested on: Pichia kudriavzevii; assay: Antifungal activity against Candida krusei FMR9729 by M27-A2 broth dilution method; type: functional
[13] = tested on: Pichia kudriavzevii; assay: Antifungal activity against Candida krusei FMR9728 infected OF1 mouse disseminated infection model assessed as reduction in kidney tissue fungal burden at 50 mg/kg/day, po for 5 days administered 24 hrs postinfection measured after 24 hrs post treatment relative to control; type: functional, organism-based
[14] = tested on: Pichia kudriavzevii; assay: Antifungal activity against 5 x 10^7 CFU Candida krusei FMR9728 infected OF1 mouse disseminated infection model assessed as prolongation of mouse survival at 100 mg/kg/day, po for 5 days administered 24 hrs postinfection measured daily for 15 days; type: functional, organism-based
[15] = tested on: Pichia kudriavzevii; assay: Antifungal activity against Candida krusei FMR9728 infected OF1 mouse disseminated infection model assessed as reduction in kidney tissue fungal burden at 60 mg/kg/day, po for 5 days administered 24 hrs postinfection measured after 24 hrs post treatment relative to control; type: functional, organism-based
[16] = tested on: Pichia kudriavzevii; assay: Antifungal activity against Candida krusei FMR9729 infected OF1 mouse disseminated infection model assessed as reduction in kidney tissue fungal burden at 20 mg/kg/day, iv for 5 days administered 24 hrs postinfection measured after 24 hrs post treatment relative to control; type: functional, organism-based
[17] = tested on: Pichia kudriavzevii; assay: Antifungal activity against Candida krusei FMR9729 infected OF1 mouse disseminated infection model assessed as reduction in kidney tissue fungal burden at 10 mg/kg/day, iv for 5 days administered 24 hrs postinfection measured after 24 hrs post treatment relative to control; type: functional, organism-based
[18] = tested on: Pichia kudriavzevii; assay: Antifungal activity against Candida krusei FMR9728 infected OF1 mouse disseminated infection model assessed as reduction in kidney tissue fungal burden at 10 mg/kg/day, iv for 5 days administered 24 hrs postinfection measured after 24 hrs post treatment relative to control; type: functional, organism-based
[19] = tested on: Pichia kudriavzevii; assay: Antifungal activity against Candida krusei FMR9728 infected OF1 mouse disseminated infection model assessed as reduction in kidney tissue fungal burden at 40 mg/kg/day, po for 5 days administered 24 hrs postinfection measured after 24 hrs post treatment relative to control; type: functional, organism-based
[20] = tested on: Pichia kudriavzevii; assay: Antifungal activity against Candida krusei FMR9729 infected OF1 mouse disseminated infection model assessed as reduction in kidney tissue fungal burden at 60 mg/kg/day, po for 5 days administered 24 hrs postinfection measured after 24 hrs post treatment relative to control; type: functional, organism-based
[21] = tested on: Pichia kudriavzevii; assay: Antifungal activity against Candida krusei FMR9728 infected OF1 mouse disseminated infection model assessed as reduction in spleen tissue fungal burden at 40 mg/kg/day, po for 5 days administered 24 hrs postinfection measured after 24 hrs post treatment relative to control; type: functional, organism-based
[22] = tested on: Pichia kudriavzevii; assay: Antifungal activity against Candida krusei FMR9729 infected OF1 mouse disseminated infection model assessed as reduction in spleen tissue fungal burden at 40 mg/kg/day, po for 5 days administered 24 hrs postinfection measured after 24 hrs post treatment relative to control; type: functional, organism-based
[23] = tested on: Pichia kudriavzevii; assay: Antifungal activity against 5 x 10^7 CFU Candida krusei FMR9728 infected OF1 mouse disseminated infection model assessed as prolongation of mouse survival at 60 mg/kg/day, po for 5 days administered 24 hrs postinfection measured daily for 15 days; type: functional, organism-based
[24] = tested on: Pichia kudriavzevii; assay: Antifungal activity against 5 x 10^7 CFU Candida krusei FMR9728 infected OF1 mouse disseminated infection model assessed as prolongation of mouse survival at 10 mg/kg/day, iv for 5 days administered 24 hrs postinfection measured daily for 15 days; type: functional, organism-based
[25] = tested on: Pichia kudriavzevii; assay: Antifungal activity against 5 x 10^7 CFU Candida krusei FMR9728 infected OF1 mouse disseminated infection model assessed as prolongation of mouse survival at 40 mg/kg/day, po for 5 days administered 24 hrs postinfection measured daily for 15 days; type: functional, organism-based
[26] = tested on: Pichia kudriavzevii; assay: Antifungal activity against Candida krusei FMR9728 infected OF1 mouse disseminated infection model assessed as reduction in spleen tissue fungal burden at 60 mg/kg/day, po for 5 days administered 24 hrs postinfection measured after 24 hrs post treatment relative to control; type: functional, organism-based
[27] = tested on: Pichia kudriavzevii; assay: Antifungal activity against 5 x 10^7 CFU Candida krusei FMR9729 infected OF1 mouse disseminated infection model assessed as prolongation of mouse survival at 20 mg/kg/day, iv for 5 days administered 24 hrs postinfection measured daily for 15 days; type: functional, organism-based
[28] = tested on: Pichia kudriavzevii; assay: Antifungal activity against 5 x 10^7 CFU Candida krusei FMR9728 infected OF1 mouse disseminated infection model assessed as prolongation of mouse survival at 20 mg/kg/day, iv for 5 days administered 24 hrs postinfection measured daily for 15 days; type: functional, organism-based
[29] = tested on: Pichia kudriavzevii; assay: Antifungal activity against 5 x 10^7 CFU Candida krusei FMR9729 infected OF1 mouse disseminated infection model assessed as prolongation of mouse survival at 10 mg/kg/day, iv for 5 days administered 24 hrs postinfection measured daily for 15 days; type: functional, organism-based
[30] = tested on: Pichia kudriavzevii; assay: Antifungal activity against 5 x 10^7 CFU Candida krusei FMR9729 infected OF1 mouse disseminated infection model assessed as prolongation of mouse survival at 40 mg/kg/day, po for 5 days administered 24 hrs postinfection measured daily for 15 days; type: functional, organism-based
[31] = tested on: Pichia kudriavzevii; assay: Antifungal activity against Candida krusei FMR9729 infected OF1 mouse disseminated infection model assessed as reduction in spleen tissue fungal burden at 60 mg/kg/day, po for 5 days administered 24 hrs postinfection measured after 24 hrs post treatment relative to control; type: functional, organism-based
[32] = tested on: Pichia kudriavzevii; assay: Antifungal activity against Candida krusei FMR9728 infected OF1 mouse disseminated infection model assessed as reduction in spleen tissue fungal burden at 20 mg/kg/day, iv for 5 days administered 24 hrs postinfection measured after 24 hrs post treatment relative to control; type: functional, organism-based
[33] = tested on: Pichia kudriavzevii; assay: Antifungal activity against Candida krusei FMR9728 infected OF1 mouse disseminated infection model assessed as reduction in kidney tissue fungal burden at 20 mg/kg/day, iv for 5 days administered 24 hrs postinfection measured after 24 hrs post treatment relative to control; type: functional, organism-based
[34] = tested on: Pichia kudriavzevii; assay: Antifungal activity against Candida krusei FMR9728 infected OF1 mouse disseminated infection model assessed as reduction in spleen tissue fungal burden at 10 mg/kg/day, iv for 5 days administered 24 hrs postinfection measured after 24 hrs post treatment relative to control; type: functional, organism-based
[35] = tested on: Pichia kudriavzevii; assay: Antifungal activity against 5 x 10^7 CFU Candida krusei FMR9729 infected OF1 mouse disseminated infection model assessed as prolongation of mouse survival at 60 mg/kg/day, po for 5 days administered 24 hrs postinfection measured daily for 15 days; type: functional, organism-based
[36] = tested on: Pichia kudriavzevii; assay: Antifungal activity against Candida krusei FMR9729 infected OF1 mouse disseminated infection model assessed as reduction in spleen tissue fungal burden at 20 mg/kg/day, iv for 5 days administered 24 hrs postinfection measured after 24 hrs post treatment relative to control; type: functional, organism-based
[37] = tested on: Pichia kudriavzevii; assay: Antifungal activity against Candida krusei FMR9729 infected OF1 mouse disseminated infection model assessed as reduction in spleen tissue fungal burden at 10 mg/kg/day, iv for 5 days administered 24 hrs postinfection measured after 24 hrs post treatment relative to control; type: functional, organism-based
[38] = tested on: Pichia kudriavzevii; assay: Antifungal activity against Candida krusei FMR9729 infected OF1 mouse disseminated infection model assessed as reduction in kidney tissue fungal burden at 40 mg/kg/day, po for 5 days administered 24 hrs postinfection measured after 24 hrs post treatment relative to control; type: functional, organism-based

CC[C@@H]([C@H](C)O)n1ncn(-c2ccc(N3CCN(c4ccc(OC[C@@H]5CO[C@@](Cn6cncn6)(c6ccc(F)cc6F)C5)cc4)CC3)cc2)c1=O [POSACONAZOLE]
Activity [1]: Active | Activity [2]: Active | Activity [3]: Active | MFC [4]: 1 µg/mL (≈ 1.43 µM) | MIC50 [4]: 0.125 µg/mL (≈ 0.178 µM) | Activity [5]: Active | Activity [6]: Active | Activity [7]: Active | Activity [8]: Active | Activity [9]: Active | Activity [10]: Active | Activity [11]: Active | MFC [12]: 2 µg/mL (≈ 2.85 µM) | MIC50 [12]: 0.25 µg/mL (≈ 0.357 µM) | Activity [13]: Active | Activity [14]: Active

C[C@@H](c1ncncc1F)[C@](O)(Cn1cncn1)c1ccc(F)cc1F [VORICONAZOLE]
Activity [15]: Active | Activity [16]: inactive | Activity [17]: inactive | Activity [18]: inactive | Activity [19]: Active | Activity [20]: Active | Activity [21]: Active | Activity [22]: inactive | MFC [4]: 16 µg/mL (≈ 45.8 µM) | MIC50 [4]: 0.125 µg/mL (≈ 0.358 µM) | Activity [23]: Active | Activity [24]: Active | Activity [25]: Active | Activity [26]: Active | Activity [27]: Active | Activity [28]: Active | Activity [29]: Active | Activity [30]: Active | Activity [31]: Active | Activity [32]: inactive | Activity [33]: inactive | Activity [34]: inactive | Activity [35]: Active | Activity [36]: inactive | MFC [12]: > 16 µg/mL | MIC50 [12]: 0.25 µg/mL (≈ 0.716 µM) | Activity [37]: inactive | Activity [38]: inactive
